In this assay the test system is RPEMYC^H2B-GFP cells. Description: Phenotypic screening assay (mitotic arrest, polyploidy). The following applies: 1 nM to 30 μM; for IC50: read-out: Proliferative arrest (>50%). Type of assay: cell-based. The procedure:
We have previously developed a mechanism-informed phenotypic screening assay to identify novel antimitotic agents. Equipped with a prior understanding of the versatile functions of the chromosomal passenger protein (CPP) complex in orchestrating karyokinesis and cytokinesis, the screening assay is to score for phenotypes typically seen when the CPP complex is disabled. Specifically, the parameters for a positive hit are a temporary elevation of mitotic index (MI) at 24 hours of drug treatment and an accumulation of polyploid cells at 48 hours of drug treatment, indicative of mitotic arrest and cytokinetic failure respectively. These parameters exclude compounds that elicit only a prolonged arrest of cells in mitosis, a phenotype typically provoked by spindle toxins. The screening procedure is briefly summarized here. RPEMYC^H2B-GFP cells engineered to express a Histone 2B-EGFP fusion protein were passaged as batches of 96-well plates, 18-24 hours before exposure to the chemical compounds of the present disclosure at concentrations from 1 nM to 30 μM. At 24, 48 or 72 hours after initiation of treatment, cells were analyzed for either an arrest in mitosis or a change in DNA content by GE IN-Cell Analyzer 2000. As set forth in Table 2 below, a value of greater than or equal to 1 nM and less than or equal to 1.0 μM is marked “A”; a value greater than 1.00 μM and less than or equal to 10.0 μM is marked “B”; a value greater than 10.0 μM and less than or equal to 30.0 μM is marked “C”; and a value greater than 30.0 μM is marked “D.”

The mark [1] stands for this setting: read-out: Min. Effective conc. for Polyploidy (≥5%).

Like-named read-outs stand apart in the source and are kept apart here.

Take `COc1cc(Oc2ccnc3ccc(C(N)=O)cc23)cc(-n2cccn2)c1` [Compound 61, 4-(3-Methoxy-5-(1H-pyrazol-1-yl)phenoxy) quinolin-6-carbazamide]: the IC50 was 1 to 1000 nM. Moreover, under setting [1], the minimal effective concentration lay in the range of 0.001 to 1 µM. Also, the minimal effective concentration (read-out: Mitotic Arrest (≥5%)) fell in the range of 0.001 to 1 µM.

Consider `COc1cc(Oc2ccnc3cc(OC)c(C(N)=O)cc23)cc(-c2ncccn2)c1` [Compound 62, 7-Methoxy-4-(3-methoxy-5-(pyridimin-2-yl)phenoxy) quinoline-6-carboxamide], for which the IC50 was in the range of 1 to 1000 nM. For the same compound, under setting [1], the minimal effective concentration fell in the range of 0.001 to 1 µM. Besides, the minimal effective concentration (read-out: Mitotic Arrest (≥5%)) is 0.001 to 1 µM.

As to `COc1cc(Oc2ccnc3cc(OC)c(OC)cc23)cc(-c2ncccn2)c1` [Compound 63, 6,7-Dimethoxy-4-(3-methoxy-5-(pyrimidin-2-yl)phenoxy) quinoline], the IC50 lay in the range of 1 to 1000 nM. In addition, the minimal effective concentration under setting [1] is 0.001 to 1 µM. Further, the minimal effective concentration (read-out: Mitotic Arrest (≥5%)) fell in the range of 0.001 to 1 µM.

Turning to `COc1cc(Oc2ccnc3cc(OC)c(C(N)=O)cc23)cc(-c2nc(C)no2)c1` [Compound 64, 7-Methoxy-4-(3-methoxy-5-(3-methyl-1,2,4-oxadiazol-5-yl)phenoxy)quinoline-6-carboxamide], the IC50 lay within 1 to 1000 nM. Besides, the minimal effective concentration under setting [1] is 0.001 to 1 µM. Further, where the note is “read-out: Mitotic Arrest (≥5%)”, the minimal effective concentration lay in the range of 0.001 to 1 µM.

As to `CCOc1cc(Oc2ccnc3ccc(C(N)=O)cc23)cc(-n2cccn2)c1` [Compound 65, 4-(3-Ethoxy-5-(MH-pyrazol-1-yl)phenoxy) quinoline-6-carboxamide], the IC50 lay within 1 to 1000 nM. Further, the minimal effective concentration under setting [1] lay in the range of 0.001 to 1 µM. Under “read-out: Mitotic Arrest (≥5%)”, the minimal effective concentration is 0.001 to 1 µM.

On to `COc1cc(Oc2ccnc3cc(OC)c(C(N)=O)cc23)cc(-c2cnn(C)c2)c1` [Compound 66, 7-Methoxy-4-(3-methoxy-5-(1-methyl-H-pyrazol-4-yl)phenoxy)quinoline-6-carboxamide], for which the IC50 fell in the range of 1 to 1000 nM. Under setting [1], the minimal effective concentration lay within 0.001 to 1 µM. In addition, the minimal effective concentration (read-out: Mitotic Arrest (≥5%)) is 0.001 to 1 µM.

Turning to `COc1cc(Oc2ccnc3ccc(Br)cc23)cc(-c2nc(C)no2)c1` [Compound 67, 5-(3-((6-Bromoquinolin-4-yl)oxy)-5-methoyphenyl)-3-methyl-1,2,4-oxadiazole], the IC50 was in the range of 1 to 1000 nM. The minimal effective concentration under setting [1] was 0.001 to 1 µM. For the same compound, where the note is “read-out: Mitotic Arrest (≥5%)”, the minimal effective concentration was in the range of 0.001 to 1 µM.

For the compound `CCOc1cc(Oc2ccnc3ccc(Br)cc23)cc(C(=O)NC)c1` [Compound 68], the IC50 was in the range of 1 to 1000 nM. Besides, the minimal effective concentration under setting [1] was 0.001 to 1 µM. In addition, the minimal effective concentration (read-out: Mitotic Arrest (≥5%)) was in the range of 0.001 to 1 µM.

As to `COc1cc(OC)cc(Oc2ccnc3cc(OC)c(C(N)=O)cc23)c1` [Compound 69, 4-(3,5-Dimethoxyphenoxy)-7-methoxyquinolin-6-carboxamide], the IC50 lay in the range of 1 to 1000 nM. Also, the minimal effective concentration under setting [1] was 0.001 to 1 µM. For the same compound, the minimal effective concentration (read-out: Mitotic Arrest (≥5%)) was in the range of 0.001 to 1 µM.

Consider `CNC(=O)c1cc(OC)cc(Oc2ccnc3ccc(C(F)(F)F)cc23)c1` [Compound 70, 3-Methoxy-N-methyl-5-((6-(trifluoromethyl)quinolin-4-yl)oxy) benzamide], for which the IC50 was 1000 to 10000 nM. The minimal effective concentration under setting [1] fell in the range of 1 to 10 µM. Moreover, for the setting “read-out: Mitotic Arrest (≥5%)”, the minimal effective concentration is 1 to 10 µM.

For `CNC(=O)c1cc(OC)cc(Oc2ccnc3cc(OC)c(C(N)=O)cc23)c1` [Compound 71, 7-Methoxy-4-(3-methoxy-5-(methylcarbamoyl)phenoxy) quinoline-6-carboxamide], the IC50 is 1000 to 10000 nM. The minimal effective concentration under setting [1] fell in the range of 1 to 10 µM. Also, the minimal effective concentration (read-out: Mitotic Arrest (≥5%)) fell in the range of 1 to 10 µM.

For `CNC(=O)c1cc(OC)cc(Oc2ccnc3ccc(Br)cc23)c1` [Compound 72, 3-((6-Bromoquinolin-4-yl)oxy)-5-methoxy-N-methylbenzamide], the IC50 is 1 to 1000 nM. The minimal effective concentration under setting [1] lay in the range of 0.001 to 1 µM. Also, the minimal effective concentration (read-out: Mitotic Arrest (≥5%)) lay within 0.001 to 1 µM.

On to `COc1cc(Oc2ncnc3ccccc23)cc(-n2cccn2)c1` [Compound 73, 4-(3-Methoxy-5-(1H-pyrazol-1-yl)phenoxy) quinazoline], for which the IC50 lay within 10000 to 30000 nM. Moreover, the minimal effective concentration under setting [1] fell in the range of 10 to 30 µM. Also, the minimal effective concentration (read-out: Mitotic Arrest (≥5%)) was in the range of 10 to 30 µM.

As for `COc1cc(Oc2ncnc3cc(OC)c(OC)cc23)cc(-n2cccn2)c1` [Compound 74, 4-(3-methoxy-5-(1H-pyrazol-1-yl)phenoxy)-6,7-dimethoxyquinazoline], the IC50 was in the range of 10000 to 30000 nM. Moreover, the minimal effective concentration under setting [1] was in the range of 10 to 30 µM. For the same compound, the minimal effective concentration (read-out: Mitotic Arrest (≥5%)) is 10 to 30 µM.

For `COc1cc(Oc2ncnc3cc(OC)c(OC)cc23)cc(-n2cnc(C)c2)c1` [Compound 75, 4-(3-Methoxy-5(4-methyl-H-imidazol-1-yl)phenoxy)-6,7-dimethoxyquinazoline], the IC50 lay within 1 to 1000 nM. Further, under setting [1], the minimal effective concentration was 0.001 to 1 µM. Also, the minimal effective concentration (read-out: Mitotic Arrest (≥5%)) was in the range of 0.001 to 1 µM.

For `COc1cc(Oc2ncnc3ccccc23)cc(-n2cnc(C)c2)c1` [Compound 76, 4-(3-Methoxy-5-(4-methyl-1H-imidazol-1-yl)phenoxy)quinazoline], the IC50 is 1000 to 10000 nM. Further, the minimal effective concentration under setting [1] lay in the range of 1 to 10 µM. Further, under “read-out: Mitotic Arrest (≥5%)”, the minimal effective concentration lay within 1 to 10 µM.

For `COc1cc(Oc2ccnc3ccccc23)cc(-n2cnc(C)c2)c1` [Compound 77, 4-(3-Methoxy-5-(4-methyl-1H-imidazol-1-yl)phenoxy)quinoline], the IC50 is 1 to 1000 nM. Further, under setting [1], the minimal effective concentration fell in the range of 0.001 to 1 µM. The minimal effective concentration (read-out: Mitotic Arrest (≥5%)) is 0.001 to 1 µM.

On to `COc1cc(Oc2ncnc3ccccc23)cc(-n2ccnc2)c1` [Compound 78], for which the IC50 is 1000 to 10000 nM. In addition, under setting [1], the minimal effective concentration was in the range of 1 to 10 µM. In addition, where the note is “read-out: Mitotic Arrest (≥5%)”, the minimal effective concentration was in the range of 1 to 10 µM.

With `COc1cc(Oc2ncnc3cc(OC)c(OC)cc23)cc(-n2ccnc2)c1` [Compound 79, 4-(3-(1H-Imidazol-1-yl)-5-methoxyphenoxy)-6,7-dimethoxyquinazoline], the IC50 was 10000 to 30000 nM. For the same compound, the minimal effective concentration under setting [1] fell in the range of 10 to 30 µM. Moreover, the minimal effective concentration (read-out: Mitotic Arrest (≥5%)) was in the range of 10 to 30 µM.

For `COc1cc(Oc2ccnc3cc(OC)c(C(N)=O)cc23)cc(O[C@H]2CCOC2)c1` [Compound 80, (S)-7-methoxy-4-(3-methoxy-5-((tetrahydrofuran-3-yl)oxy)phenoxy)quinoline-6-carboxamide], the minimal effective concentration by setting is: under setting [1], 0.001 to 1 µM; (read-out: Mitotic Arrest (≥5%)) 0.001 to 1 µM.

As for `COc1cc(Oc2ccnc3cc(OC)c(C(N)=O)cc23)cc(O[C@@H]2CCOC2)c1` [Compound 81, (R)-7-methoxy-4-(3-methoxy-5-((tetrahydrofuran-3-yl)oxy)phenoxy)quinoline-6-carboxamide], the minimal effective concentration under setting [1] is 0.001 to 1 µM and the minimal effective concentration (read-out: Mitotic Arrest (≥5%)) lay in the range of 0.001 to 1 µM.

As for `COc1cc2nccc(Oc3cc(OC4CCOC4)cc(OC4CCOC4)c3)c2cc1C(N)=O` (centres unmarked) [Compound 82, 4-(3,5-bis((tetrahydrofuran-3-yl)oxy)phenoxy)-7-methoxyquinoline-6-carbonamide], the minimal effective concentration was in the range of 1 to 10 µM under setting [1] and 1 to 10 µM (read-out: Mitotic Arrest (≥5%)).

For the compound `COc1cc(OCC2CCOC2)cc(Oc2ccnc3cc(OC)c(C(N)=O)cc23)c1` (centres unmarked) [Compound 83, 7-methoxy-4-(3-methoxy-5-((tetrahydrofuran-3-yl)methoxy)phenoxy)quinoline-6-carboxamide], the minimal effective concentration lay within 0.001 to 1 µM under setting [1] and 0.001 to 1 µM (read-out: Mitotic Arrest (≥5%)).

Turning to `COc1cc(Oc2ccnc3cc(OC)c(C(N)=O)cc23)cc(-n2cc(C)cn2)c1` [Compound 84], the minimal effective concentration by setting is: under setting [1], 0.001 to 1 µM; (read-out: Mitotic Arrest (≥5%)) 0.001 to 1 µM.

With `COc1cc(Oc2ccnc3cc(OC)c(C(N)=O)cc23)cc(-n2ccc(C)n2)c1` [Compound 85, 7-methoxy-4-(3-methoxy-5-(3-methyl-1H-pyrazol-1-yl)phenoxy)quinoline-6-carboxamide], the minimal effective concentration runs as follows: under setting [1], 0.001 to 1 µM; (read-out: Mitotic Arrest (≥5%)) 0.001 to 1 µM.

In the case of `COc1cc(Oc2ccnc3cc(OC)c(C(N)=O)cc23)cc(-n2nc(C)cc2C)c1` [Compound 86, 4-(3-(3,5-dimethyl-1H-pyrazol-1-yl)-5-methoxyphenoxy)-7-methoxyquinoline-6-carboxamide], the minimal effective concentration was 1 to 10 µM under setting [1] and 1 to 10 µM (read-out: Mitotic Arrest (≥5%)).

With `COc1cc(Oc2ccnc3cc(OC)c(C(N)=O)cc23)cc(-c2nnc(C)o2)c1` [Compound 87, 7-methoxy-4-(3-methoxy-5-(5-methyl-1,3,4-oxadiazol-2-yl)phenoxy)quinoline-6-carboxamide], the minimal effective concentration lay within 0.001 to 1 µM under setting [1] and 0.001 to 1 µM (read-out: Mitotic Arrest (≥5%)).

Take `COc1cc(Oc2ccnc3cc(OC)c(Br)cc23)cc(-n2cccn2)c1` [Compound 88, 6-bromo-7-methoxy-4-(3-methoxy-5-(1H-pyrazol-1-yl)phenoxy)quinoline]: the minimal effective concentration was in the range of 0.001 to 1 µM under setting [1] and 0.001 to 1 µM (read-out: Mitotic Arrest (≥5%)).

With `COc1cc(OC)cc(Oc2ccnc3cc(OC)c(Br)cc23)c1` [Compound 89, 6-bromo-4-(3,5-dimethoxyphenoxy)-7-methoxyquinone], the minimal effective concentration under setting [1] lay in the range of 0.001 to 1 µM and the minimal effective concentration (read-out: Mitotic Arrest (≥5%)) was in the range of 0.001 to 1 µM.

The values are drawn from US20240239806A1, “COMPOUNDS, COMPOSITIONS AND METHODS OF TREATING DISORDERS” (Chengdu Anticancer Bioscience, Ltd., priority 2021, published 2024).
